Measurements taken from patent publication US7528144B2, “Molecules and methods for fluorescence microscopy” (WiSys Technology Foundation, Inc., priority 2005, dated 2009).

Test system: THP-1 cells
Assay: Photobleaching under repeated exposures in cells
Format: cell-based
Conditions: 75-200 nM, repeated CCD exposures (FIG. 25)
Procedure: FIG. 25 depicts (A) InstantLyso LLT-1 at 75 nM in THP-1 cells. Exposures were taken every 30 seconds (with consistent CCD exposure length 7.5 seconds) with blue excitation cube (490 nm maximum).; (B) InstantGolgi McN-1 at 200 nm in THP-1 cells. Exposures were taken with consistent CCD exposure length with purple excitation cube.; (C) InstantLipo Sep-1at 200 nm in THP-1 cells. Exposures were taken with consistent CCD exposure length with purple excitation cube; and (D) Lysotracker Red at 75 nM in THP-1 cells. Exposures were taken every 5 seconds (with consistent CCD exposure length) with green excitation cube. Unretouched, unprocessed images.
The dyes of the present invention hold up well to photobleaching relative to the time needed to take most fluorescence shots (a few seconds).

## CCCCCCN1C(=O)c2cccc3c(NCCN)ccc(c23)C1=O [InstantLyso LLT-1, 6-(2-aminoethyl)amino-2-hexyl-1H-benz[de]isoquinoline-1,3-(2H)-dione]
  resistance to photobleaching: holds up much better than the others
